Source: patent US10413504B2, “Intravaginal ring drug delivery system” (Merck Sharp & Dohme B.V., priority 2013, dated 2019)

Experiment: ENG and E2 solubility, diffusion coefficient and permeability in EVA copolymers (two-layer polymer slab, fit with Fick's 2nd law)
Conditions: ENG
Method: For the determination of the solubility concentration and diffusion coefficient a method was developed. The method consists in preparing polymer slab composites with one layer highly loaded with active ingredient (60 wt %) on top of a layer of placebo polymer. The two layers were first pressed separately in a hot press and thereafter combined, also using the press, into a two layer structure. The diffusion of the active ingredient from the loaded layer through the placebo layer is measured in time, for the active ingredient/polymer combination adequate analysis method. Thereafter the experimental diffusion data is fitted with a mathematical model based on Fick's 2nd law of diffusion in one direction. The differential equation is solved using trigonometrical series with the solubility concentration and diffusion coefficient as only unknown variables.

C#C[C@]1(O)CC[C@H]2[C@@H]3CCC4=CC(=O)CC[C@@H]4[C@H]3C(=C)C[C@@]21CC [ENG, etonogestrel]
Cs (solubility in EVA copolymer) (VA % 9): 0.4 mg/g | D (diffusion coefficient in EVA copolymer) (VA % 9): 2.29 ×10^−13 m^2/s | Cs (solubility in EVA copolymer) (VA % 15): 0.9 mg/g | D (diffusion coefficient in EVA copolymer) (VA % 15): 3.17 ×10^−13 m^2/s | Cs (solubility in EVA copolymer) (VA % 28): 3.22 mg/g | D (diffusion coefficient in EVA copolymer) (VA % 28): 4.80 ×10^−13 m^2/s
